{"source": "paper PMC3969223", "about": "“Characterization of WZ4003 and HTH-01-015 as selective inhibitors of the LKB1-tumour-suppressor-activated NUAK kinases” (Biochemical Journal, 2013)", "key": {"U2OS cells": {"system": "U2OS cells", "experiment": "Cell proliferation assay (CellTiter 96 AQueous)", "assay_type": "cell-based", "conditions": "10 μM, 5 days; same extent as shRNA-mediated NUAK1 knockdown", "method": "Cell proliferation assays were carried out colorimetrically in 96-well plates using the CellTiter 96® AQueous Non-Radioactive Cell Proliferation Assay kit (Promega) following the manufacturer's protocol. Initially, 2000 cells per well were seeded for U2OS cells and 3000 cells per well were seeded for MEFs. The proliferation assays were carried out over 5 days in the presence or absence of 10 μM HTH-01-015 or WZ4003."}, "BRSK1": {"molecular_target": "T1, BRSK1 (Homo sapiens, UniProt Q8TDC3)", "T1 sequence (Q8TDC3 1-778)": "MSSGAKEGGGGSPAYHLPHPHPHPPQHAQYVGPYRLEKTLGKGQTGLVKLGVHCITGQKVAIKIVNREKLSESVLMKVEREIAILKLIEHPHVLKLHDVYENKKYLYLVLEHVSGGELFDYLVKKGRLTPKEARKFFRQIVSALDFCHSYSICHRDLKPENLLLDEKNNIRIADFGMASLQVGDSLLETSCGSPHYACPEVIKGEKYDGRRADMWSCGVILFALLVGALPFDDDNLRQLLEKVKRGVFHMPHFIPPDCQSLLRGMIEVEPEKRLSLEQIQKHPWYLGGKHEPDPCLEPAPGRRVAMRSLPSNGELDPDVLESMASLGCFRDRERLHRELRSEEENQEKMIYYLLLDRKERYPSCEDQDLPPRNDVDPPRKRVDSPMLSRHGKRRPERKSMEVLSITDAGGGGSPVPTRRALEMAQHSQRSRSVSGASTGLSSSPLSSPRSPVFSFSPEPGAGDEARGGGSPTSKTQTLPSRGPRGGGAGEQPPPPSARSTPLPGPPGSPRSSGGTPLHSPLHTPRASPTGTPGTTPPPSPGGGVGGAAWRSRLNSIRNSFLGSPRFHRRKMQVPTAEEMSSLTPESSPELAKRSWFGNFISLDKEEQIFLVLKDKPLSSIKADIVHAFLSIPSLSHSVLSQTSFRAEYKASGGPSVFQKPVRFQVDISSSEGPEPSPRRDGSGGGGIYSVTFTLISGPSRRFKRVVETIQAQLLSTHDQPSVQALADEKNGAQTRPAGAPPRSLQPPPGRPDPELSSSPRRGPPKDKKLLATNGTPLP", "experiment": "Kinase profiling", "assay_type": "biochemical", "conditions": "for BRSK1 activity, percentage of DMSO control: 0.1 or 1 μM inhibitor, mean of triplicate", "method": "Kinase inhibitor specificity profiling assays were carried out at The International Centre for Protein Kinase Profiling (http://www.kinase-screen.mrc.ac.uk/) against a panel of 140 protein kinases as described previously. Results are presented as a percentage of kinase activity in DMSO control reactions. Protein kinases were assayed in vitro with 0.1 or 1 μM of the inhibitors and the results are presented as an average of triplicate reactions±S.D. or in the form of comparative histograms."}, "[1]": {"system": "MYPT1 Ser445 phosphorylation", "experiment": "MYPT1 Ser445 phosphorylation, HEK-293 Flp/In T-Rex overexpressing HA-NUAK1[A195T]", "assay_type": "cell-based, human", "conditions": "cells expressing drug-resistant NUAK1[A195T]; 30 μM", "method": "(§1) HEK (human embryonic kidney)-293 and U2OS cells were cultured in DMEM (Dulbecco's modified Eagle's medium) supplemented with 10% FBS, 2 mM glutamine and 1×antibacterial/antimycotic solution. NUAK1^+/+ and NUAK1^−/− MEFs were cultured in DMEM supplemented with 10% (v/v) FBS and 2 mM glutamine, 1×antibacterial/antimycotic solution, 1% (v/v) non-essential amino acids and 1% (v/v) sodium pyruvate. HEK-293 Flp/In T-Rex cell lines were cultured in DMEM supplemented with 10% (v/v) FBS and 2 mM glutamine, 1×antibacterial/antimycotic solution, 100 μg/ml hygromycin and 15 μg/ml blasticidin. Supplementing the culture medium with 0.1 μg/ml doxycycline for 16–24 h induced protein expression in the HEK-293 Flp/In T-Rex cells. Cell counting was carried out using Invitrogen Countess following the manufacturer's protocol. A cell-detachment assay was carried out on HEK-293 cells using PBS-EDTA-based cell dissociation buffer as described previously. An inhibitor dose-dependence assay was carried out by treating the cells with various concentrations of the inhibitors as indicated in the Figure legends. The inhibitors were dissolved in DMSO and the total concentration of DMSO in the culture media never exceeded 1%. Transient transfections of HEK-293 cells were carried out using PEI [24]. Stable transfections were carried out in HEK-293 Flp/In T-Rex cells (Invitrogen) following the manufacturer's protocol. […]"}, "[2]": {"system": "ACC Ser79 phosphorylation", "experiment": "ACC Ser79 phosphorylation on EDTA-induced detachment, HEK-293", "assay_type": "cell-based, human", "conditions": "HEK-293, 16 h", "method": "as §1"}, "[3]": {"system": "MYPT1 Ser445 phosphorylation", "experiment": "MYPT1 Ser445 phosphorylation, HEK-293 Flp/In T-Rex overexpressing wild-type HA-NUAK1", "assay_type": "cell-based, human", "conditions": "HEK-293 expressing wild-type NUAK1; 3–10 μM", "method": "as §1"}}}
{"compound": "Cc1nc(Nc2cnn(C3CCNCC3)c2)nc2c1N(C)C(=O)c1cc3ccccc3cc1N2C", "note": "[HTH-01-015]", "values": [{"measurement": "Proliferation of U2OS cells (in words)", "setting": "U2OS cells", "result": "suppressed proliferation"}, {"measurement": "BRSK1 activity, percentage of DMSO control", "setting": "BRSK1", "result": 130, "unit": "percentage"}, {"measurement": "Block of MYPT1 Ser445 phosphorylation (in words)", "setting": "[1]", "result": "failed to block"}, {"measurement": "Inhibition of ACC Ser79 phosphorylation induced by cell detachment (in words)", "setting": "[2]", "result": "neither compound inhibited"}, {"measurement": "Suppression of MYPT1 phosphorylation (in words)", "setting": "[3]", "result": "markedly suppressed"}]}
{"compound": "CCC(=O)Nc1cccc(Oc2nc(Nc3ccc(N4CCN(C)CC4)cc3OC)ncc2Cl)c1", "note": "[WZ4003]", "values": [{"measurement": "Proliferation of U2OS cells (in words)", "setting": "U2OS cells", "result": "suppressed proliferation"}, {"measurement": "BRSK1 activity, percentage of DMSO control", "setting": "BRSK1", "result": 91, "unit": "percentage"}, {"measurement": "Block of MYPT1 Ser445 phosphorylation (in words)", "setting": "[1]", "result": "failed to block"}, {"measurement": "Inhibition of ACC Ser79 phosphorylation induced by cell detachment (in words)", "setting": "[2]", "result": "neither compound inhibited"}, {"measurement": "Suppression of MYPT1 phosphorylation (in words)", "setting": "[3]", "result": "markedly suppressed"}]}
{"compound": "CN1C(=O)c2ccccc2N(C)c2nc(Nc3cnn(C4CCNCC4)c3)ncc21", "note": "[XMD-17-51]", "values": [{"measurement": "Inhibition of BRSK1 in profiling (in words)", "setting": "BRSK1; 1 μM", "result": "inhibited"}]}
